“And” between values parts separate entries of the source, which are not always exact repeats. Identical values can stand only once.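 How tested: cells in 96-well plates exposed to compound for 48 hours at five concentrations. Here, GI50 denotes the concentration required for 50% inhibition of growth. TGI: total growth inhibition.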
Assays:
Experiment in all cases: NCI-60 cell line screen, 48 h
[1] = system: SNB-19 CNS
[2] = system: HCC-2998 colon
[3] = system: SNB-75 CNS
[4] = system: A498 renal
[5] = system: 786-0 renal
[6] = system: SR leukemia
[7] = system: HT29 colon
[8] = system: NCI/ADR-RES ovarian
[9] = system: RPMI-8226 leukemia
[10] = system: SK-MEL-5 melanoma
[11] = system: SF-295 CNS
[12] = system: ACHN renal
[13] = system: NCI-H226 lung
[14] = system: KM12 colon
[15] = system: RXF 393 renal
[16] = system: NCI-H522 lung
[17] = system: SK-OV-3 ovarian
[18] = system: OVCAR-5 ovarian
[19] = system: MALME-3M melanoma
[20] = system: NCI-H460 lung
[21] = system: CAKI-1 renal
[22] = system: OVCAR-8 ovarian
[23] = system: DU-145 prostate
[24] = system: HCT-116 colon
[25] = system: NCI-H23 lung
[26] = system: MDA-MB-231 breast
[27] = system: COLO 205 colon
[28] = system: HCT-15 colon
[29] = system: BT-549 breast
[30] = system: M14 melanoma
[31] = system: U251 CNS
[32] = system: PC-3 prostate
[33] = system: MDA-N
[34] = system: HS 578T breast
[35] = system: OVCAR-3 ovarian
[36] = system: OVCAR-4 ovarian
[37] = system: SK-MEL-2 melanoma
[38] = system: EKVX NSCLC
[39] = system: MDA-MB-435
[40] = system: SF-539 CNS
[41] = system: IGROV1 ovarian
[42] = system: SN12C renal
[43] = system: SF-268 CNS
[44] = system: UO-31 renal
[45] = system: HL-60(TB) leukemia
[46] = system: MOLT-4 leukemia
[47] = system: SW-620 colon
[48] = system: TK-10 renal
[49] = system: HOP-92 NSCLC
[50] = system: SK-MEL-28 melanoma
[51] = system: UACC-62 melanoma
[52] = system: MCF7 breast
[53] = system: T-47D breast
[54] = system: HOP-62 NSCLC
[55] = system: CCRF-CEM leukemia
[56] = system: UACC-257 melanoma
[57] = system: K-562 leukemia
[58] = system: LOX IMVI melanoma

How did the GI50 [1] turn out when `CC1=C(N2CC2)C(=O)C(CO)=C(N2CC2)C1=O` was run?
Its GI50 is 2.5 nM.

And the GI50 [2]?
Its GI50 is 111 nM.

And the TGI [2]?
The TGI was 511 nM and 290 nM.

And the TGI [3]?
Its TGI is 380 nM.

And the GI50 [4]?
Its GI50 is 15.8 nM.

And the TGI [4]?
The TGI was 41 nM and 220 nM.

What about the GI50 [5] of the same molecule?
The GI50 was 2.01 nM.

What about the TGI [5] of the same molecule?
Its TGI is 19.9 nM and 133 nM.

What about the TGI [6] of the same molecule?
The TGI was > 49000 nM.

And the TGI [7]?
The TGI was 148 nM and 435 nM.

And the GI50 [8]?
Its GI50 is 16.1 nM.

What about the TGI [8] of the same molecule?
The TGI was 67.1 nM and 18.2 nM.

And the GI50 [9]?
The GI50 was 1.02 nM.

What about the TGI [9] of the same molecule?
The TGI was 14.7 nM and 82.4 nM.

And the GI50 [10]?
Its GI50 is 39.9 nM.

And the TGI [10]?
The TGI was 162 nM and 312 nM.

What about the GI50 [11] of the same molecule?
Its GI50 is 32.9 nM.

And the TGI [11]?
The TGI was 1060 nM.

And the GI50 [12]?
Its GI50 is 0.47 nM.

And the TGI [13]?
The TGI was 166 nM.

What about the GI50 [14] of the same molecule?
The GI50 was 35.6 nM.

And the TGI [14]?
Its TGI is 337 nM.

And the TGI [15]?
Its TGI is 94.6 nM.

What about the GI50 [16] of the same molecule?
Its GI50 is 11.2 nM.

What about the TGI [16] of the same molecule?
The TGI was 38.5 nM and 48.9 nM.

What about the GI50 [17] of the same molecule?
The GI50 was 186 nM.

And the TGI [17]?
Its TGI is 1810 nM.

And the GI50 [18]?
The GI50 was 194 nM.

And the TGI [18]?
Its TGI is 740 nM.

And the TGI [19]?
Its TGI is 116 nM.

And the GI50 [20]?
Its GI50 is 4.76 nM.

And the TGI [20]?
The TGI was 1850 nM.

And the GI50 [21]?
Its GI50 is 2.56 nM.

What about the TGI [21] of the same molecule?
Its TGI is 412 nM and 243 nM.

And the GI50 [22]?
Its GI50 is 14.5 nM.

What about the TGI [22] of the same molecule?
The TGI was 70.1 nM and 79.9 nM.

What about the TGI [23] of the same molecule?
Its TGI is 1300 nM.

And the GI50 [24]?
Its GI50 is 7.28 nM.

And the TGI [24]?
Its TGI is 39.2 nM and 336 nM.

What about the GI50 [25] of the same molecule?
The GI50 was 1.43 nM.

What about the GI50 [26] of the same molecule?
Its GI50 is 140 nM.

And the GI50 [27]?
The GI50 was 135 nM and 84 nM.

What about the TGI [27] of the same molecule?
Its TGI is 290 nM and 230 nM.

What about the GI50 [28] of the same molecule?
Its GI50 is 20 nM.

And the TGI [28]?
The TGI was 584 nM.

What about the TGI [29] of the same molecule?
Its TGI is 1950 nM.

What about the GI50 [30] of the same molecule?
The GI50 was 16.2 nM.

What about the TGI [30] of the same molecule?
The TGI was 119 nM and 52.2 nM.

What about the TGI [31] of the same molecule?
The TGI was 285 nM.

What about the GI50 [32] of the same molecule?
Its GI50 is 15.9 nM and < 21.3 nM.

And the TGI [32]?
The TGI was 79.1 nM.

And the GI50 [33]?
The GI50 was 28.4 nM and 25.9 nM.

And the TGI [33]?
The TGI was 138 nM and 106 nM.

What about the GI50 [34] of the same molecule?
Its GI50 is 139 nM.

What about the TGI [34] of the same molecule?
The TGI was 352 nM and 1430 nM.

What about the GI50 [35] of the same molecule?
Its GI50 is 37.7 nM.

And the TGI [35]?
The TGI was 557 nM and 56.4 nM.

And the GI50 [36]?
Its GI50 is 195 nM.

What about the TGI [36] of the same molecule?
Its TGI is 904 nM and 587 nM.

And the TGI [37]?
Its TGI is 98.8 nM and 585 nM.

What about the TGI [38] of the same molecule?
The TGI was 990 nM.

And the GI50 [39]?
The GI50 was 38.6 nM and 39.3 nM.

What about the TGI [39] of the same molecule?
Its TGI is 169 nM and 151 nM.

What about the GI50 [40] of the same molecule?
Its GI50 is 3.01 nM.

What about the TGI [40] of the same molecule?
Its TGI is 19 nM and 59.3 nM.

And the GI50 [41]?
Its GI50 is 16.8 nM.

What about the TGI [41] of the same molecule?
Its TGI is 70.3 nM and 51.8 nM.

What about the GI50 [42] of the same molecule?
The GI50 was 5.7 nM.

And the TGI [42]?
Its TGI is 36.7 nM and 139 nM.

What about the GI50 [43] of the same molecule?
Its GI50 is 6.66 nM.

And the GI50 [44]?
Its GI50 is 5.12 nM.

What about the TGI [44] of the same molecule?
Its TGI is 23.1 nM and 31.9 nM.

And the GI50 [45]?
The GI50 was 0.498 nM.

What about the TGI [45] of the same molecule?
Its TGI is 10.4 nM.

And the TGI [46]?
Its TGI is 5880 nM.

And the GI50 [47]?
Its GI50 is 3.68 nM.

What about the GI50 [48] of the same molecule?
The GI50 was 40.5 nM.

What about the TGI [48] of the same molecule?
The TGI was 721 nM and 309 nM.

And the GI50 [49]?
Its GI50 is 18.3 nM and 18 nM.

And the TGI [49]?
The TGI was 247 nM and 280 nM.

And the TGI [50]?
Its TGI is 228 nM.

And the TGI [51]?
The TGI was 146 nM and 230 nM.

What about the GI50 [52] of the same molecule?
Its GI50 is 4.87 nM.

What about the TGI [52] of the same molecule?
The TGI was 93.8 nM and 96.7 nM.

And the TGI [53]?
The TGI was 529 nM.

And the GI50 [54]?
The GI50 was 21.9 nM.

What about the TGI [54] of the same molecule?
Its TGI is 56.9 nM.

And the GI50 [55]?
Its GI50 is 0.612 nM.

What about the GI50 [56] of the same molecule?
The GI50 was 76.1 nM.

And the TGI [56]?
The TGI was 527 nM and 2410 nM.

And the TGI [57]?
Its TGI is 1070 nM.

What about the GI50 [58] of the same molecule?
The GI50 was 3.07 nM.

And the TGI [58]?
The TGI was 22.6 nM and 187 nM.

From PubChem BioAssay (NCI)
